Source: patent US20260007643A1, “HIGHLY SOLUBLE FORMULATIONS OF HARMINE” (Reconnect Labs AG, priority 2022, published 2026)
Read-outs that look alike come from different tables or passages of the source.

Assays:
[1] = Description: Thus, the present inventors performed an additional screening, in which different compositions of harmine were manufactured and their solubility in water was examined.
To this end, in a first experiment 1 g of harmine freebase was added to […] of dH2O to yield a final concentration of 20% (w/w). Then, the acids mentioned above were individually added to the solution in different molar rations (e.g. 1:1 or 2:1) and it was examined, whether the acids can solubilize harmine freebase by protonation or complex formation.

[2] = Polymorph and salt screening: stability and evaluation of solid state forms; format: physicochemical
Description: The form scNF1 was also created in the course of cooling crystallizations in water/acetone (70/30), (70/30), water/dioxane water/THF (70/30) and water/acetonitrile (70/30). In addition, the form scNF1 was created by gas diffusion crystallizations of water/1,4-dioxane, water/2-propanol and water/acetonitrile. In long-term slurries, scNF1 was successfully produced with acetone/water (80/20) and acetonitrile/water (90/10). Rapid precipitations of the form scNF1 with the antisolvent water are achieved with the solvents acetone and acetonitrile. Form scNF1 can also be crystallized by evaporating the solvent water.
The form scNF1 is Harmine-HCl dihydrate, as could be determined by means of TGA after static storage (RT/100% RH for 7 days). […] A more detailed characterization of the form scNF1 was not requested by the client.
In the course of the screening performed, 14 new solid-phases were detected by using XRPD.

[3] = Solubility testing of harmine salts (gravimetric, temperature-dependent); format: physicochemical; conditions: for solubility at 48 h: thermodynamic from solid; for Solubility compared with harmine hydrochloride: in words, data in water
Description: Four 250 mL glass jacketed beakers are set up, which are connected with silicone hoses and connected to a Julabo F25 HE thermostat in order to be able to set a constant temperature. In the beakers there is a Pt100 sensor for temperature monitoring, a stopper with a hole that is sealed with play dough and a vial holder with space for four 4 ml vials for a quadruple determination of the solubility. The beakers are located on a strong magnetic stirrer plate so that the temperature is distributed as homogeneously as possible in the liquid medium. Water is used as the medium. The Pt100 sensors and the Julabo are connected to a measuring computer, which controls the Julabo and the temperatures of the Pt100 sensors can be read.
A Sartorius LE26P microbalance with an accuracy of ±0.01 mg is used for the gravimetric determination of the solubility in mass percent.
4 ml vials are filled with 1-2 mL of the respective solvent and equipped with a stirring magnet. The solid to be measured is then added until it is supersaturated. The prepared vials are sealed and placed in the vial holder and equilibrated in the apparatus for 48 hours at the temperature to be examined. After 24 hours, an equilibrium between the solid and liquid phases should have been reached. The liquid phase is removed and transferred to a second vial via a Whatman 20 μm PTFE pre-syringe filter. The tools used, such as the pre-syringe filter, syringe and cannula, are initially cooled or heated to the temperature to be measured. The second vial is first empty, then weighed with the solution and finally evaporated again to ensure constant mass.
At least when the data in water are considered. […] The solubilities are summarized in the table 14 below and in FIGS. 59 and 60: […]

[4] = Blood plasma profiles of harmine and harmol in healthy volunteers; format: in vivo, Human; conditions: ~3.5 mg/kg
[5] = first pKa value; cited from earlier work
[6] = target: T1, monoamine oxidase A (MAO-A) (Homo sapiens, UniProt P21397); conditions: cited from earlier work
T1 sequence (P21397 1-527): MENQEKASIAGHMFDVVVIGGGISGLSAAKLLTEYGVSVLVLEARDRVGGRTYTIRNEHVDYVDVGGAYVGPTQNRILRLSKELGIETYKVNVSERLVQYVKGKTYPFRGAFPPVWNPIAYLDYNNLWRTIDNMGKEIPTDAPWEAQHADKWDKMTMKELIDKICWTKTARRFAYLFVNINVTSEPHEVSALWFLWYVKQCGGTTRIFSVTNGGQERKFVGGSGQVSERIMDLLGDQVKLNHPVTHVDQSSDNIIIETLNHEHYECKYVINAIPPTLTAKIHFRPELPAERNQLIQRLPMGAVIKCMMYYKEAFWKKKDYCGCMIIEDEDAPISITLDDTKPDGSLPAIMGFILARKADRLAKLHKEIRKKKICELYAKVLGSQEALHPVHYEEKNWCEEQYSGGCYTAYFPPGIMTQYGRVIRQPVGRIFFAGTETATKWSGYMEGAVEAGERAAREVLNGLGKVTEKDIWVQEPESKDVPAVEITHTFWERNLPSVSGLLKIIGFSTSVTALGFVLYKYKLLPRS

[7] = Solubility of harmine in the solvents used in the salt screening; format: physicochemical; conditions: for solubility: organic solvent or mixture
Description: The drug substance Harmine was investigated for a salt screening of different salts by crystallization experiments from various solvents and grinding experiments. Solubility experiments were also conducted before starting the salt screening.
In the following table 3, the different solvents used in the salt screening are summarized.

[8] = target: T2, monoamine oxidase B (MAO-B) (Homo sapiens, UniProt P27338); conditions: cited from earlier work
T2 sequence (P27338 1-520): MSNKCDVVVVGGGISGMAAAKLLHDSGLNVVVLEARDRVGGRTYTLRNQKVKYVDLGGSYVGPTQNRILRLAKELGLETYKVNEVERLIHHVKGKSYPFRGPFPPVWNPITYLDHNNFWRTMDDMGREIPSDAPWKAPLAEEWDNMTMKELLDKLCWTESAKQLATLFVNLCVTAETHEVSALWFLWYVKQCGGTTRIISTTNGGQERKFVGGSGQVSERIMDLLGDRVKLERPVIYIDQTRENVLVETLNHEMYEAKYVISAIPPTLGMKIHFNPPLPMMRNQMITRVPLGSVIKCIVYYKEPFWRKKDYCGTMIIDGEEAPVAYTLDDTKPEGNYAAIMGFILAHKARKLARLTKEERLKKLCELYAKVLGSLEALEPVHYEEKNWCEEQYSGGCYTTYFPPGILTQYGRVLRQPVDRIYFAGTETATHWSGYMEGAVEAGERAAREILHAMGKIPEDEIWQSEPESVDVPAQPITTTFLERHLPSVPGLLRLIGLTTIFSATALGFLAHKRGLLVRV

[9] = pKa and solubility data of harmine and the acids used in the salt screening; format: physicochemical
[10] = Solubility of harmine glucuronate for loading of TIP particles; format: physicochemical
Description: Loading harmine or its salt into TIP particles: FIG. 12 depicts SEM images of unsuccessful TIP loading with Harmine HCl (A; 1% in EtOH) and successful loadings with Harmine HCl (B; 0.1% in EtOH) and Harmine Glucuronate (C; 25% in H2O). As shown, TIP particles can be loaded with Harmine HCl, but only when using very low substance concentrations (0.1%) in an organic solvent such as EtOH. Loading with higher concentrations (1%) leads to external crystallization. Moreover, using H2O as solvent, triggers the rapid precipitation of HRM HCl as freebase, when it is exposed to basic residues within the TIP particles. […] Regarding the latter point, it could be shown that the loading process of the TIP particles is most efficient, when adding highly concentrated drug substance solutions (either in EtOH, H2O or DMSO) to the particles. Loading TIP particles with harmine glucuronate yielded exceptional results. […] It is thought that this property of HRM GLU is caused by its highly amorphous structure, leading to less crystallization compared to HRM HCl (which crystallizes readily as freebase, especially when exposed to basic residues within the TIP particles).
Thus, harmine glucuronate is very practical to handle on a large scale (e.g. up to 1 Kg of HRM GLU can be dissolved in 1 L of water), yields very efficient loading of the TIP particles.

[11] = Dose-response study of DMT and harmine in healthy subjects: harmine PK profiles; conditions: 180 mg harmine with 90 mg DMT formulated in TIP, ODTs sublingual in 3 dosing intervals every 20 minutes, two subjects
[12] = ethanol, organic solvent or mixture, EtOH, 25° C., read-out: Solubility at 25° C. (EtOH)
[13] = ethanol, organic solvent or mixture, EtOH, 37° C., read-out: Solubility at 37° C. (EtOH)
[14] = water, H2O, 25° C., read-out: Solubility at 25° C. (H2O)
[15] = water, H2O, 37° C., read-out: Solubility at 37° C. (H20)

D-glucuronic acid
Ability of the acid to solubilize harmine freebase ([1]; 1 g harmine freebase in 5 g dH2O (20% w/w), acid added in molar ratios e.g. 1:1 or 2:1): highest solubility

COc1ccc2c(c1)[nH]c1c(C)nccc12.Cl [Harmine HCl, reference compound]
Solid form change on static storage ([2]; RT/100% RH for 7 days): converts to the form scNF1 | solubility at 48 h [3, 12]: 6790 µg/mL | solubility at 48 h [3, 13]: 7950 µg/mL | solubility at 48 h [3, 14]: 24900 µg/mL | solubility at 48 h [3, 15]: 53100 µg/mL | Cmax ([4]; human, plasma, oral administration): ~80 ng/mL | Harmine plasma level ([4]; oral capsule, 10 healthy volunteers): ~80 ng/mL

COc1ccc2c(c1)[nH]c1c(C)nccc12 [Harmine, 7-methoxy-1-methyl-9H-pyrido[3,4-b]-indole]
pka (½) [5]: 7.45 | Inhibition of MAO-A [6]: reversibly inhibits | solubility ([7]; 2-picoline): 10 mg/mL | Solubility in solvent ([7]; 95% methanol | 5% water): almost resolved | Anti-Solvent practically insoluble ([7]; dimethyl carbonate, THF, acetonitrile, methanol, acetone, MEK, dichloromethane (25° C. | 45° C.), chloroform, 1,4-dioxane, water, veratrol, p-xylene, sulfolane, benzonitrile, 95% acetonitrile | 5% water (45° C.), 95% acetone | 5% water (45° C.)): practically insoluble | solubility ([7]; dimethyl sulfoxide (DMSO)): 13 mg/mL | solubility ([7]; dimethylformamide (DMF), dimethylformamid (DMF), souble): 33 mg/mL | solubility ([7]; methanol, 45 °C): 12 mg/mL | solubility ([7]; 1-methyl-2-pyrrolidone (NMP), souble): 80 mg/mL | solubility ([7]; dimethylacetamide, souble): 40 mg/mL | solubility ([7]; tetramethylurea, souble): 40 mg/mL | solubility ([7]; pyridine): 205 mg/mL | Inhibition of MAO-B [8]: does not inhibit

O=C(O)[C@H](O)[C@@H](O)[C@H](O)[C@H](O)CO [D-gluconic acid]
Solubility of harmine with the acid [1]: higher than 15%

O=C(O)[C@@H](O)[C@H](O)[C@H](O)[C@@H](O)C(=O)O [mucic acid]
Ability of the acid to solubilize harmine freebase [1]: not able to solubilize harmine

Harmine Glucuronate
ΔpKs value of harmine and glucuronic acid [9]: 4.27 | Solubility in H2O ([10]; H2O, RT): ~45% | Amount that can be dissolved in 1 L of water ([10]; in 1 L of water): up to 1 Kg | Harmine concentration readily feasible in water ([1]; harmine + equimolar glucuronic acid in deionized water, 1 g harmine in 5 mL final volume): > 20% | Bioavailability of harmine (plasma PK profiles) [11]: bioavailable | Gravimetric solubility relative to harmin hydrochloride ([3]; 25° C.): about eight times | Solubility at 25° C. (EtOH) ([3]; EtOH, 25° C.): 4.25 mg/mL | Solubility at 37° C. (EtOH) ([3]; EtOH, 37° C.): 7.93 mg/mL | Solubility at 25° C. (H2O) ([3]; H2O, 25° C.): 405.95 mg/mL | Solubility at 37° C. (H20) ([3]; H2O, 37° C.): 549.52 mg/mL | Solubility compared with harmine hydrochloride [3]: extremely improved solubility

L(−)-Malic acid
ΔpKa ([9]; harmine pKa 7.45 versus first pKa of the acid): 3.99 | ΔpKa ([9]; harmine pKa 7.45 versus second pKa of the acid): 2.35

COc1ccc2c(c1)[nH]c1c(C)nccc12.Cl.O.O [Harmine-HCl dihydrate]
Solid form stability at ambient conditions ([2]; after 5 weeks at ambient conditions, powder diffractogram): traces of Harmine-HCl were identified

COc1ccc2c(c1)[nH]c1c(C)nccc12.O=P(O)(O)O [Harmine Phosphate]
Evaluation/Remarks: solubility in deuterated solvents ([2]; any deuterated solvent): Since the new form does not show sufficient solubility | solubility at 48 h [3, 12]: 580 µg/mL | solubility at 48 h [3, 13]: 550 µg/mL | Solubility compared with harmine hydrochloride ([3]; listed as Harmine-Phosphate, Phosphate): do not show any better solubility properties | Solubility compared with harmine hydrochloride ([3]; listed as harmine phosphate, Phosphate): significantly worse | solubility at 48 h [3, 14]: 11000 µg/mL | solubility at 48 h [3, 15]: 12900 µg/mL
